Where a name gives a salt, the structure may show the parent alone.
Key:
mexB (PA) strain = test: Combinational effect with antibacterial agent against Pseudomonas aeruginosa (Test Examples 2 and 4): mexB (PA) strain with LVFX, TC or AZT at 1/4 MIC, EC99; format: cell-based; conditions: mexB (PA) strain, Test Example 4; for EC99, combinational effect with AZT, mexB (PA): combined with AZT at 1/4 MIC; for EC99, combinational effect with LVFX, mexB (PA): combined with LVFX at 1/4 MIC; for EC99, combinational effect with TC, mexB (PA): combined with TC at 1/4 MIC
Procedure, shortened: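 EC99 denotes the minimum test-compound concentration (range 0–800 μM) that suppresses ≥99% of growth, measured by OD595, when combined with ¼ MIC levofloxacin (LVFX), tetracycline or aztreonam. The efflux-pump mutant mexB (PA), expressing mainly MexAB-OprM, was inoculated at 10^4–5 CFU/well in CAMHB for 16–20 h.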

S-3769 strain = test: Combinational effect with antibacterial agent against Pseudomonas aeruginosa (Test Examples 2 and 4): S-3769 strain with AMK or GM at 1/4 MIC, EC99; format: cell-based; conditions: S-3769 strain, Test Example 4; for EC99, combinational effect with AMK, S-3769 strain: combined with AMK at 1/4 MIC; for EC99, combinational effect with GM, S-3769 strain: combined with GM at 1/4 MIC
Procedure, shortened: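 EC99, the lowest test-compound concentration inhibiting growth by ≥99% (OD595), was measured with aminoglycoside AMK or GM held at ¼ MIC. Strain S-3769, a MexY-overexpressing clinical isolate, was cultured in CAMHB at 10^4 to 5 CFU/well for 16–20 h; compound range 0–800 μM.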

| SMILES | EC99, combinational effect with AZT, mexB (PA) (mexB (PA) strain) | EC99, combinational effect with LVFX, mexB (PA) (mexB (PA) strain) | EC99, combinational effect with TC, mexB (PA) (mexB (PA) strain) | EC99, combinational effect with AMK, S-3769 strain (S-3769 strain) | EC99, combinational effect with GM, S-3769 strain (S-3769 strain) |
| --- | --- | --- | --- | --- | --- |
| N[C@@H](C(=O)N1CCN(Cc2cccc3cccnc23)CC1)C1CCN(CCc2cc(Cl)ccc2-c2ccccc2)CC1 [Example 533, Hydrobromide of (R)-2-amino-2-(1-(2-(4-chloro-[1,1-biphenyl]-2-yl)ethyl)piperidin-4-yl)-1-(4-(quinolin-8-ylmethyl)piperazin-1-yl)ethan-1-one] | B (25 μM<EC99≤100 μM) | A (12.5 μM<EC99≤25 μM) | A (12.5 μM<EC99≤25 μM) | A (12.5 μM<EC99≤25 μM) | A (12.5 μM<EC99≤25 μM) |
| CCSc1ncccc1CN1CCN(C(=O)[C@H](N)C2CCN(CCc3cc(Cl)ccc3-c3ccccc3)CC2)CC1 [Example 535, Hydrobromide of (R)-2-amino-2-(1-(2-(4-chloro-[1,1-biphenyl]-2-yl)ethyl)piperidin-4-yl)-1-(4-((2-(ethylthio)pyridin-3-yl)methyl)piperazin-1-yl)ethan-1-one] | B (25 μM<EC99≤100 μM) | A (12.5 μM<EC99≤25 μM) | B (25 μM<EC99≤100 μM) | B (25 μM<EC99≤100 μM) | B (25 μM<EC99≤100 μM) |
| CSc1cccnc1CN1CCN(C(=O)[C@H](N)C2CCN(CCc3cc(Cl)ccc3-c3ccccc3)CC2)CC1 [Example 536, Hydrobromide of (R)-2-amino-2-(1-(2-(4-chloro-[1,1-biphenyl]-2-yl)ethyl)piperidin-4-yl)-1-(4-((3-(methylthio)pyridin-2-yl)methyl)piperazin-1-yl)ethan-1-one] | A (12.5 μM<EC99≤25 μM) | A (12.5 μM<EC99≤25 μM) | B (25 μM<EC99≤100 μM) | B (25 μM<EC99≤100 μM) | B (25 μM<EC99≤100 μM) |
| COc1c(CN2CCN(C(=O)[C@H](N)C3CCN(CCc4cc(Cl)ccc4-c4ccccc4)CC3)CC2)cccc1B(O)O [Example 537, Hydrobromide of (R)-(3-((4-(2-amino-2-(1-(2-(4-chloro-[1,1-biphenyl]-2-yl)ethyl)piperidin-4-yl)acetyl)piperazin-1-yl)methyl)-2-methoxyphenyl)boronic acid] | C (100 μM<EC99) | C (100 μM<EC99) | B (25 μM<EC99≤100 μM) | B (25 μM<EC99≤100 μM) | A (12.5 μM<EC99≤25 μM) |
| CSc1ccccc1CN1CCN(C(=O)[C@H](N)C2CCN(CCc3cscc3-c3ccccc3)CC2)CC1 [Example 539, Hydrobromide of (R)-2-amino-1-(4-(2-(methylthio)benzyl)piperazin-1-yl)-2-(1-(2-(4-phenylthiophen-3-yl)ethyl)piperidin-4-yl)ethan-1-one] | B (25 μM<EC99≤100 μM) | B (25 μM<EC99≤100 μM) | B (25 μM<EC99≤100 μM) | B (25 μM<EC99≤100 μM) | B (25 μM<EC99≤100 μM) |
| CCOc1cccc(F)c1CN1CCN(C(=O)[C@H](N)C2CCN(CCc3cscc3-c3ccccc3)CC2)CC1 [Example 540, Hydrobromide of (R)-2-amino-1-(4-(2-ethoxy-6-fluorobenzyl)piperazin-1-yl)-2-(1-(2-(4-phenylthiophen-3-yl)ethyl)piperidin-4-yl)ethan-1-one] | C (100 μM<EC99) | B (25 μM<EC99≤100 μM) | B (25 μM<EC99≤100 μM) | A (12.5 μM<EC99≤25 μM) | A (12.5 μM<EC99≤25 μM) |
| CCSc1cc(F)ccc1CN1CCN(C(=O)[C@H](N)C2CCN(CCc3ncccc3-c3ccccc3)CC2)CC1 [Example 542, Hydrobromide of (R)-2-amino-1-(4-(2-(ethylthio)-4-fluorobenzyl)piperazin-1-yl)-2-(1-(2-(3-phenylpyridin-2-yl)ethyl)piperidin-4-yl)ethan-1-one] | B (25 μM<EC99≤100 μM) | B (25 μM<EC99≤100 μM) | B (25 μM<EC99≤100 μM) | B (25 μM<EC99≤100 μM) | B (25 μM<EC99≤100 μM) |
| CCSc1cc(F)ccc1CN1CCN(C(=O)[C@H](N)C2CCN(CCc3cc(Cl)ccc3-c3cccc(N)c3)CC2)CC1 [Example 544, hydrobromide of (R)-2-amino-2-(1-(2-(3′-amino-4-chloro-[1,1′-biphenyl]-2-yl)ethyl)piperidin-4-yl)-1-(4-(2-(ethylthio)-4-fluorobenzyl)piperazin-1-yl)ethan-1-one] | S (EC99≤12.5 μM) | S (EC99≤12.5 μM) | S (EC99≤12.5 μM) | A (12.5 μM<EC99≤25 μM) | S (EC99≤12.5 μM) |
| CCOc1cccc(F)c1CN1CCN(C(=O)[C@H](N)C2CCN(CCc3cc(Cl)ccc3-c3ccoc3)CC2)CC1 [Example 547, Hydrobromide of (R)-2-amino-2-(1-(5-chloro-2-(furan-3-yl)phenethyl)piperidin-4-yl)-1-(4-(2-ethoxy-6-fluorobenzyl)piperazin-1-yl)ethan-1-one] | B (25 μM<EC99≤100 μM) | B (25 μM<EC99≤100 μM) | C (100 μM<EC99) | S (EC99≤12.5 μM) | S (EC99≤12.5 μM) |
| CCOc1cccc(F)c1CN1CCN(C(=O)[C@H](N)C2CCN(CCc3cc(Cl)ccc3-c3cccc4ccccc34)CC2)CC1 [Example 548, Hydrobromide of (R)-2-amino-2-(1-(5-chloro-2-(naphthalen-1-yl)phenethyl)piperidin-4-yl)-1-(4-(2-ethoxy-6-fluorobenzyl)piperazin-1-yl)ethan-1-one] | A (12.5 μM<EC99≤25 μM) | S (EC99≤12.5 μM) | A (12.5 μM<EC99≤25 μM) | S (EC99≤12.5 μM) | A (12.5 μM<EC99≤25 μM) |
| CCOc1cccc(F)c1CN1CCN(C(=O)[C@H](N)C2CCN(CCc3cc(Cl)ccc3-c3coc4ccccc34)CC2)CC1 [Example 549, Hydrobromide of (R)-2-amino-2-(1-(2-(benzofuran-3-yl)-5-chlorophenethyl)piperidin-4-yl)-1-(4-(2-ethoxy-6-fluorobenzyl)piperazin-1-yl)ethan-1-one] | A (12.5 μM<EC99≤25 μM) | A (12.5 μM<EC99≤25 μM) | A (12.5 μM<EC99≤25 μM) | A (12.5 μM<EC99≤25 μM) | A (12.5 μM<EC99≤25 μM) |
| CCOc1cccc(F)c1CN1CCN(C(=O)[C@H](N)C2CCN(CCc3cc(Cl)ccc3-c3csc4ccccc34)CC2)CC1 [Example 550, Hydrobromide of (R)-2-amino-2-(1-(2-(benzo[b]thiophen-3-yl)-5-chlorophenethyl)piperidin-4-yl)-1-(4-(2-ethoxy-6-fluorobenzyl)piperazin-1-yl)ethan-1-one] | A (12.5 μM<EC99≤25 μM) | S (EC99≤12.5 μM) | A (12.5 μM<EC99≤25 μM) | A (12.5 μM<EC99≤25 μM) | A (12.5 μM<EC99≤25 μM) |
| CSc1ccccc1CN1CCN(C(=O)[C@H](N)C2CCN(CCc3cc(Cl)ccc3-c3cccc(F)c3)CC2)CC1 [Example 551, Hydrobromide of (R)-2-amino-2-(1-(2-(4-chloro-3′-fluoro-[1,1-biphenyl]-2-yl)ethyl)piperidin-4-yl)-1-(4-(2-(methylthio)benzyl)piperazin-1-yl)ethan-1-one] | S (EC99≤12.5 μM) | S (EC99≤12.5 μM) | S (EC99≤12.5 μM) | B (25 μM<EC99≤100 μM) | A (12.5 μM<EC99≤25 μM) |
| CSc1ccccc1CN1CCN(C(=O)[C@H](N)C2CCN(CCc3cc(Cl)ccc3C3=CCCNC3)CC2)CC1 [Example 553, Hydrobromide of (R)-2-amino-2-(1-(5-chloro-2-(1,2,5,6-tetrahydropyridin-3-yl)phenethyl)piperidin-4-yl)-1-(4-(2-(methylthio)benzyl)piperazin-1-yl)ethan-1-one] | A (12.5 μM<EC99≤25 μM) | S (EC99≤12.5 μM) | S (EC99≤12.5 μM) | S (EC99≤12.5 μM) | S (EC99≤12.5 μM) |

From patent US20250326744A1, “PIPERAZINE DERIVATIVE OR SALT THEREOF, AND PHARMACEUTICAL COMPOSITION” (priority 2022, published 2025)
